Source: article PMC6467921, “Biosynthesis of DHGA12 and its roles in Arabidopsis seedling establishment” (Nature Communications, 2019)

Tests used:
GAS2 = biological target: T1, GAS2 (Arabidopsis thaliana, UniProt F4INZ9); assay: product of in vitro GAS2 reaction identified by LC-MS, compared with synthetic standard; format: biochemical
T1 construct: gene GIM2; recombinant purified GAS2
T1 sequence (F4INZ9 1-366): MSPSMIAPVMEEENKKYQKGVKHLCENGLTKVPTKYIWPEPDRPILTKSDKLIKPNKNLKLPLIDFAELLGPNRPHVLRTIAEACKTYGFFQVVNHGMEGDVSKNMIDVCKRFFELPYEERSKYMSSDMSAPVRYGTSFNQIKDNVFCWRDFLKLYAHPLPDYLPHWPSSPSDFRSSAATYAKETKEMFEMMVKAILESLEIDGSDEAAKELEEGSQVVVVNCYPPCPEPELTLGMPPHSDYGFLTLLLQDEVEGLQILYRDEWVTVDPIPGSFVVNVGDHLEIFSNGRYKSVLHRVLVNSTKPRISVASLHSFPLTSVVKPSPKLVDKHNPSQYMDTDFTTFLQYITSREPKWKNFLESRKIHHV

GID1c = biological target: T2, GID1c (Arabidopsis thaliana, UniProt Q940G6); assay: microscale thermophoresis (MST), NT-647-labeled GST-GID1c; format: binding
T2 construct: glutathione S-transferase (GST)-tagged GID1c
T2 sequence (Q940G6 2-344): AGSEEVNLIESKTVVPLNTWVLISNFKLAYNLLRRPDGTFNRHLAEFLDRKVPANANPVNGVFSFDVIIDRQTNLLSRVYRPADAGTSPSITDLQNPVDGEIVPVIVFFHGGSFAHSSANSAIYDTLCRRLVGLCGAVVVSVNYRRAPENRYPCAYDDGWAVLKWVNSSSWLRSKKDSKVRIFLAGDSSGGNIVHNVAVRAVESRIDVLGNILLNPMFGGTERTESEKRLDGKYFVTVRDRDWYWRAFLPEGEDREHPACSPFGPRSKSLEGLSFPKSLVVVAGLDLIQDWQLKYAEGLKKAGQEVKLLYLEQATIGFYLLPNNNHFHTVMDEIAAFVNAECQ

Compound: C[C@@]12CCC[C@@](C)(C(=O)O)[C@H]1[C@H](C(=O)O)[C@@]13C[C@@H](CC[C@@H]21)[C@](C)(O)C3 [DHGA12]
- product of in vitro GAS2 reaction identified by LC-MS, compared with synthetic s (GAS2): Our data demonstrate that GAS2 exhibits hydration activity using GA12 as a substrate to produce DHGA12.
- Kd (GID1c): 1450 ± 250 nM

Compound: C=C1C[C@]23C[C@H]1CC[C@H]2[C@@]12CC[C@H](O)[C@@](C)(C(=O)O1)[C@H]2[C@@H]3C(=O)O [GA4]
- Kd (GID1c): 680 ± 120 nM
